Key:
[1] = biological target: T1, chimeric protein PPARγ-Gal4 (Homo sapiens, UniProt P37231); assay: PPAR activation, Gal4 chimera luciferase reporter in co-transfected CV-1 cells; assay type: cell-based; conditions: 50 μM, 18 hours contact
T1 construct: Gal4 (fusion partner); expressed in transfected cells; host or cells: CV-1 cells (monkey kidney cells)
T1 sequence (P37231 238-503 limits assumed): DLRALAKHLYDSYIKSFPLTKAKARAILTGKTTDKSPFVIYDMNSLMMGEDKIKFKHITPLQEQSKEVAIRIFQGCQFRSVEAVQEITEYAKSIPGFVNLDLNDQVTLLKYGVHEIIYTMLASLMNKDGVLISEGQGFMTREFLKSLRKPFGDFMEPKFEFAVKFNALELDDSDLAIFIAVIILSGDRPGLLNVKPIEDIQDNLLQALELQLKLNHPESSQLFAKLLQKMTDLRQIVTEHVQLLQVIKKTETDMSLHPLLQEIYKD
Protocol: (§1) The measurement of the PPAR activation was performed according to a technique described by Lehmann et al. (1995, J. Biol. Chem. 270: 12953-12956).
(§2) CV-1 cells (monkey kidney cells) are co-transfected with an expression vector for the chimeric proteins PPARα-Gal4 or PPARγ-Gal4 and with a “reporter” plasmid which allows the expression of the luciferase gene placed under the control of a promoter containing Gal4 response elements.
(§3) The cells are inoculated in 96-zwell microplates and co-transfected using a commercial reagent with the reporter plasmid (pG5-tk-pGL3) and the expression vector for the chimeric protein (PPARα-Gal4 or PPARγ-Gal4). After incubating for 4 hours, whole culture medium (containing 10% foetal calf serum) is added to the wells. After 24 hours, the medium is removed and replaced with whole medium containing the test products (50 μM final). The products are left in contact with the cells for 18 hours. The cells are then lysed and the ludferase activity is measured using a luminometer. A PPAR activation factor can then be calculated by means of the activation of the expression of the reporter gene induced by the product (relative to the control cells that have not received any product).

[2] = biological target: T2, chimeric protein PPARα-Gal4 (Homo sapiens, UniProt Q07869); assay: as above; assay type: cell-based; conditions: 50 μM, 18 hours contact
T2 construct: Gal4 (fusion partner); expressed in transfected cells; host or cells: CV-1 cells (monkey kidney cells)
T2 sequence (Q07869 239-466 limits assumed): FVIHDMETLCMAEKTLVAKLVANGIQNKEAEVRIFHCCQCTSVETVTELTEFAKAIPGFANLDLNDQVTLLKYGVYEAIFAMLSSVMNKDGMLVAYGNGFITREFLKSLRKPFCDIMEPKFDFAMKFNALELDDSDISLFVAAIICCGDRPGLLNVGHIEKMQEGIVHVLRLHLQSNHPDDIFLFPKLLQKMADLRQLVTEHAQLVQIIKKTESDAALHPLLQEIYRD
Protocol: as §1, §2, §3

[3] = test system: db/db mice; assay: Antidiabetic and hypolipidaemiant activity, oral, in db/db mice; assay type: in vivo; conditions: oral 20 mg/kg/day for 15 days
Protocol: The antidiabetic and hypolipidaemiant activity of the compounds was determined orally in db/db mice.
16 week-old db/db mice are treated orally for 15 days with the compound of Example 5 (20 mg/kg/day). Each group studied comprises seven animals. After treatment for 15 days, retro-orbital samples are taken after a mild anaesthesia and fasting for 4 hours.
The following parameters were measured:
Glycaemia assay (glucose oxidase) and assay of the lipid parameters on the sera at D15 (COBAS): triglycerides, total cholesterol (CHOL), the HDL cholesterol (HDL-C) and the free fatty acids (FFA) (BioMérieux and Waco Chemicals assay kit).
The measurements given represent mean values±standard error.

[4] = test system: vector expressing Gal4 alone; assay: Luciferase reporter control without PPAR ligand binding region in CV-1 cells; assay type: cell-based; conditions: in the presence of the product
Text: CV-1 cells (monkey kidney cells) are co-transfected with an expression vector for the chimeric proteins PPARα-Gal4 or PPARγ-Gal4 and with a “reporter” plasmid which allows the expression of the luciferase gene placed under the control of a promoter containing Gal4 response elements. The cells are inoculated in 96-zwell microplates and co-transfected using a commercial reagent with the reporter plasmid (pG5-tk-pGL3) and the expression vector for the chimeric protein (PPARα-Gal4 or PPARγ-Gal4). After incubating for 4 hours, whole culture medium (containing 10% foetal calf serum) is added to the wells. After 24 hours, the medium is removed and replaced with whole medium containing the test products (50 μM final). The products are left in contact with the cells for 18 hours. The cells are then lysed and the ludferase activity is measured using a luminometer. A PPAR activation factor can then be calculated by means of the activation of the expression of the reporter gene induced by the product (relative to the control cells that have not received any product). […] In the absence of the binding region for the PPARα or γ ligand (vector expressing Gal4 alone), the luciferase activity measured in the presence of this product is zero.

[5] = serum D15, mean ± standard error

SMILES: O=C(O)C(CCSc1ccccc1)Oc1ccc(C(F)(F)F)cc1 (centres unmarked) [Example 5, 4-phenylsulphanyl-2-(4-trifluoromethylphenoxy)butyric acid]
- PPAR activation factor (reporter gene expression relative to control cells) [1]: six
- PPAR activation factor (reporter gene expression relative to control cells) [2]: nine
- CHOL, % variation relative to the control ([3]; D15, * p < 0.05 vs control): 47* %
- FFA, % variation relative to the control ([3]; D15, * p < 0.05 vs control): −38* %
- Glycaemia, % variation relative to the control ([3]; D15, * p < 0.05 vs control): −59* %
- HDL-C, % variation relative to the control ([3]; D15, * p < 0.05 vs control): 36* %
- Triglycerides, % variation relative to the control ([3]; D15, * p < 0.05 vs control): −47* %
- Glycaemia ([3]; D15, fasting 4 hours, mean ± standard error): 11.1 ± 3.3 mM
- CHOL (total cholesterol) [3, 5]: 5.4 ± 0.9 mM
- FFA (free fatty acids) [3, 5]: 0.4 ± 0.0 mM
- HDL-C [3, 5]: 4.3 ± 0.6 mM
- Triglycerides [3, 5]: 0.7 ± 0.1 mM
- luciferase activity in the absence of the binding region for the PPARα or γ ligand [4]: zero
- melting point: 108 to 110 °C
